{"source": "paper PMC11111852", "about": "“Exploration of the role of the penicillin binding protein 2c (Pbp2c) in inducible β-lactam resistance in Corynebacteriaceae” (Frontiers in Microbiology, 2024)", "key": {"Pbp2c": {"target": "T1, Pbp2c (Corynebacterium jeikeium, UniProt Q4JX88)", "T1 construct": "residues 32-593 without N-terminal transmembrane segment; E. coli BL21(DE3); 62,975 Da; monomer", "T1 sequence (Q4JX88 entry or part of it)": "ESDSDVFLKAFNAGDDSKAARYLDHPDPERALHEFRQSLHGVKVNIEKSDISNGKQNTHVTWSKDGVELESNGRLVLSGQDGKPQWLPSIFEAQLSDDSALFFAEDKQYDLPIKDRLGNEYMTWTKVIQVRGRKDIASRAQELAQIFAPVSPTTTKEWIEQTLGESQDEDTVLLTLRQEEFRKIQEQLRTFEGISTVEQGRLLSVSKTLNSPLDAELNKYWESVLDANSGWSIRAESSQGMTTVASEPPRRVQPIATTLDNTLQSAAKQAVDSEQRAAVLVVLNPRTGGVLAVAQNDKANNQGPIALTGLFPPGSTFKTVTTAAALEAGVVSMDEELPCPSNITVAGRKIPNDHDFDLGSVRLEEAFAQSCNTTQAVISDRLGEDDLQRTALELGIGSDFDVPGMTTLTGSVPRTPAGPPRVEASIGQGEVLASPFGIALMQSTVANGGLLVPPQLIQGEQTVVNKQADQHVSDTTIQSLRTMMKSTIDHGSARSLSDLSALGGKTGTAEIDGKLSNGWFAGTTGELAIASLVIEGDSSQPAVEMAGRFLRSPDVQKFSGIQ", "experiment": "electrospray mass spectrometry of covalent adduct", "assay_type": "binding", "conditions": "20 uM protein, 200 uM drug, 1 h, 20 °C, 100 mM MES pH 6.4"}, "BlaCor": {"target": "T2, BlaCor (Corynebacterium jeikeium, UniProt Q4JX89)", "T2 construct": "gene jk0411; 276-residue protein with N-terminal His6-TEV tag (pET-TEV), E. coli BL21(DE3), observed mass 32,825 Da, monomer", "T2 sequence (Q4JX89 entry or part of it)": "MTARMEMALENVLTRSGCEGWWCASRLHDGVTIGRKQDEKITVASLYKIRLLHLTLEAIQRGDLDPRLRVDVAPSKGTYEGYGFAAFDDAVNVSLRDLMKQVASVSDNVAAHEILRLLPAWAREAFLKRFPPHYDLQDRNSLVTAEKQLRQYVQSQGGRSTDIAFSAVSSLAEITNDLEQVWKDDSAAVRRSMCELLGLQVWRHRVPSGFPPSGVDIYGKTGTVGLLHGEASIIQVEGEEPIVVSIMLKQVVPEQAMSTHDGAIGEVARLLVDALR", "experiment": "electrospray mass spectrometry of covalent adduct", "assay_type": "binding", "conditions": "not hydrolysed"}}, "data": [{"compound": "C[C@@H](O)[C@H]1C(=O)N2C(C(=O)O)=C(SCCN=CN)C[C@H]12", "note": "[imipenem]", "values": [{"measurement": "electrospray mass spectrometry of covalent adduct", "setting": "Pbp2c", "result": "Incubation of Pbp2c with imipenem allowed the detection of adducts"}]}, {"compound": "C[C@@H](O)[C@H]1C(=O)N2C(C(=O)O)=C(S[C@@H]3CN[C@H](C(=O)N(C)C)C3)[C@H](C)[C@H]12", "note": "[meropenem]", "values": [{"measurement": "electrospray mass spectrometry of covalent adduct", "setting": "Pbp2c", "result": "Adducts matching increments of the average mass of meropenem were also detected"}]}, {"compound": "O=C(Cc1cccs1)N[C@@H]1C(=O)N2C(C(=O)O)=C(/C=C/c3ccc([N+](=O)[O-])cc3[N+](=O)[O-])CS[C@H]12", "note": "[nitrocefin]", "values": [{"measurement": "electrospray mass spectrometry of covalent adduct", "setting": "BlaCor", "result": "the nitrocefin-BlaCor adduct was detected by mass spectrometry (data not shown)"}]}]}
